Source: a melting point compilation (Tetko et al.; mined from patent text by program, amines drawn as free bases though some values may be those of a salt)

Row | melting point [°C] | Compound
1 | 109 to 110 | O=C1Cc2ccc(-c3ccccc3)cc2O1
2 | 168 to 170 | CN1CCN(C2NC(=O)c3ccccc32)CC1 (stereo not given)
3 | 210 to 211 | N#Cc1ccc(N2C=CC(N)=C([N+](=O)[O-])C2)cc1
4 | 143 to 145 | CCOC(=O)NNc1cc(C)c(-c2ccccc2)nn1
5 | 248 to 250 | Cc1nc2cc3c(cc2c(=O)[nH]1)C(N(C)c1ccc(C(=O)NC(CCc2nnn[nH]2)C(=O)O)nc1)CC3 (racemic)
6 | 145 to 147 | COC1(c2cccc(Oc3nc(-c4ccccc4)c(-c4ccc(S(N)(=O)=O)cc4)o3)c2)CCOCC1
7 | > 275 | COc1ccc(Nc2nc(C)c(-c3nc4ccccc4c(=O)n3-c3ccc(Cl)cc3)s2)cc1
8 | > 200 | CN(C)CCOCc1ccc2[nH]nc(S(=O)(=O)c3cccc4ccccc34)c2c1
9 | 76.5 to 78.2 | C#CC1C2=C(c3ccc(OCc4ccccc4)cc3N1C(=O)Oc1ccccc1)C(O[Si](C)(C)C(C)(C)C)CCC2 (stereo not given)
10 | 173 | Cc1c(Sc2ccc(Cl)cc2)c2c(N3CCN(C(=O)OC(C)(C)C)CC3)cccc2n1CC(=O)O
11 | 95 to 98 | Cc1ncnn1C[Si](C)(C)c1ccc(-c2ccccc2)cc1
12 | 129 to 131 | COc1ccc2nc3ccc(C(=O)OCOC(=O)C(C)(C)C)cn3c(=O)c2c1
13 | 135 to 137 | CCc1c(C)nc2n(c1=O)C(C)CCC2=NNc1ccccc1 (stereo not given)
14 | 296 to 297 | O=c1cc(-c2ccc(O)nc2)oc2ccccc12
15 | > 250 | Nc1nc2ccccc2c2c1nc1n2CCCN1
16 | 266 | N#Cc1c(N2CCN(C(=O)c3cccs3)CC2)c2cc(Cl)ccc2n(Cc2ccccc2)c1=O
17 | 171 to 173 | Cc1cc(Oc2ccc(NC(=O)N3CCc4ccccc4CC3)cn2)ccc1Cl
18 | 53 to 54 | COC(=O)c1cc(OCc2ccccc2)nn1-c1ccccc1
19 | 149 to 150 | O=C(O)CCc1cn(Cc2ccc(OCc3ccc(-c4ccccc4)cn3)cc2)nc1-c1ccccc1
20 | 70 to 80 | Cc1noc(NS(=O)(=O)c2ccccc2-c2ccccc2CO)c1C
21 | 121 to 122 | Cc1ccc2ccccc2c1N(C(=O)CCl)C1COC(=O)C1 (stereo not given)

Row | melting point [°C] | Compound
22 | 105 to 108 | CCN(CC)CCOc1ccc(NC(=O)C#Cc2ccc(-c3ccccc3)cc2)cc1Cl
23 | 178 to 180 | O=C(O)CCNC(=O)c1ccc(N(Cc2ccc(C3=CCCCC3)cc2)C(=O)C=Cc2cccc(OC(F)(F)F)c2)cc1
24 | 206 | O=C(Nc1cccc(Nc2nc(-c3cccnc3)cs2)c1)c1ccc(/C=C/ONO)s1
25 | 248 | CC(C(=O)O)c1ccc(-c2cn3cccnc3n2)cc1 (stereo not given)
26 | 82 to 84 | CCCc1c(OCc2ccccc2)ccc2c1OC(C(=O)OC)(C1CC1C(=O)OC)CC2 (stereo not given)
27 | 155 | CS(=O)(=O)c1c(O)c2cccnc2n(Cc2ccccc2)c1=O
28 | 167 | COC1CSC2=C(SC1)C(OC(=O)Oc1ccccc1)N(c1ccc(Cl)cn1)C2=O (stereo not given)
29 | 208 to 212 | CCCCn1c(=O)n(Cc2ccccc2)c(=O)c2[nH]c(Cc3ccc(N4C(=O)CCC4=O)cc3)nc21
30 | 204 to 205 | COc1cccc(Cc2nc3n(-c4c(Cl)cc(Cl)cc4Cl)[nH]c(C(C)C)c-3c(=O)n2)c1
31 | 213 to 216 | CCc1ccccc1S(=O)(=O)c1cc(N)c2ncccc2c1[N+](=O)[O-]
32 | 219 to 221 | O=C(O)c1ccc(OCC2COC(=O)N2c2ccc(Cl)cc2)cc1 (stereo not given)
33 | 212 to 214 | CCCOc1ccc(S(=O)(=O)NCCN(C)C)cc1-c1nc2cc3nc[nH]c3cc2c(=O)[nH]1
34 | 117 to 120 | N#CN1CCC(Oc2c(F)c(F)c(F)c(F)c2F)(c2ccccc2)CC1
35 | 163 to 164 | CCCCSC(=S)N1Cc2[nH]c3ccccc3c2CC1C(=O)O (stereo not given)
36 | 85 to 86 | O=C(NCCc1ccc(F)cc1)c1ccc(S(=O)(=O)Nc2ccccc2C(=O)O)cc1
37 | 188 to 189 | CC(CNC(=O)c1c2ccccc2nc2c1[nH]c1ccccc12)N(C)C (stereo not given)
38 | 198 to 201 | O=C(c1ccccc1)N1C(=O)c2cccnc2Nc2ccccc21
39 | > 300 | O=c1c2ccccc2nc2n1CS(=O)(=O)N2
40 | 244 to 245 | O=c1[nH]c(-c2ccccc2)cn1S(=O)(=O)c1ccc2c(c1)CCN2Cc1cccnc1
41 | 142 to 144 | Cc1cc(C(O)(C(F)(F)F)C(F)(F)F)cc(C)c1OCC(=O)NCc1ccccc1

Further lines, the molecule ahead of its results:

Row | Compound | melting point [°C]
42 | Cc1cc(NC(=O)Cc2cccs2)nc(C)c1Br | 192
43 | COC(=O)C(Oc1ccc(Cl)c(C(F)(F)F)c1)c1ccc(Cl)cc1 (stereo not given) | 58
44 | CNCc1nc(-c2ncn3c2CN(C)C(=O)c2c(Cl)cccc2-3)no1 | 192 to 193
45 | N#Cc1cc(Br)c(OC(=O)OCCl)c(Br)c1 | 83 to 85
46 | O=C1NCc2cccn2-c2ccsc21 | 191
47 | CCOC(=O)N1CCN(CCNc2ncnc3c2sc2nc(N4CCCC4)c4c(c23)CC(C)(C)OC4)CC1 | 97.8 to 99.1
48 | Cc1c(NC(=O)CC(C)(C)C)c2c(c3c1C(c1ccc(C(C)C)cc1)CO3)CCC2 (stereo not given) | 201 to 202
49 | Cc1nc(C)n2c1CN=C(c1ccccc1Cl)c1cc(Cl)ccc1-2 | 175 to 177
50 | CCN(CC)c1nc(O)cc(OC)n1 | 165 to 166
51 | CNC(=S)NCCCSc1ncco1 | 43 to 45
52 | CCCCCc1c(C(C)C)nc(C(C)C)c(CNC)c1-c1ccc(F)cc1 | 77 to 79
53 | O=C1c2ccccc2CN1CC1CCN(CCc2c[nH]c3ccccc23)CC1 | 225 to 230
54 | COC(=O)Nc1nc2ccccc2n1-c1nc(N2CCOCC2)nc(N2CCOCC2)n1 | 206 to 209
55 | Cc1cccc(C)c1NC(=O)CCC1CCC(=O)N1 (stereo not given) | 206 to 208
56 | COC(=O)c1ccc(NC(=O)CSC(C)=O)cc1 | 137 to 139
57 | C#CCOc1ccc(C(=O)OC)c(O)c1 | 142
58 | CCCCC(C=C1c2cc3c(cc2-c2sc(-c4cc5sccc5s4)cc21)C(=CC(CC)CCCC)c1cc(-c2cc4sccc4s2)sc1-3)CC (stereo not given) | 320
59 | CCOP(=S)(OCC)Oc1nsc(SCc2ccccc2)n1 | < 50
60 | CC(C)NC1=NS(=O)(=O)c2ccc(Cc3nc(C4CC4)no3)cc2N1 | 255 to 259
61 | CCOC(=O)c1nc2scc(C)n2c1C | 141 to 142
62 | COC(=O)COC(=O)C(C)c1ccc2cc(O)ccc2c1 (stereo not given) | 84.5 to 87
63 | C[C@@H]1CCC[C@H](C)N1CCNC(=O)CN1CCCC1=O | 93 to 94.5
64 | Cn1c(Br)c(C#N)c(C(F)(F)F)c1Br | 101 to 104
65 | CN(C)CCN(C)C(=O)[C@H]1CC[C@H](N(C)S(=O)(=O)c2ccc(C(F)(F)F)cc2)CC1 | 83
66 | COc1cc(-c2cnc3[nH]cc(C(=O)CCC(C)OC)c3n2)cc(OC)c1OC (stereo not given) | 150 to 151
67 | CCN(C(C)=O)c1ccc(OC23CCC(CC2)CC3)cc1 | 99 to 101
68 | O=C(Oc1c(F)c(F)c(F)c(F)c1F)c1ccc(F)c(F)c1Nc1ccc(I)cc1Cl | 108 to 110
69 | Nc1cc(F)c(Cl)c(F)c1N | 77 to 78
70 | O=C(Nc1ccc(C(F)(F)F)cc1)Nc1nc(Cl)cc(Cl)n1 | 99 to 101
